# Assays:
# [1] = tested on: herpes virus; experiment: Virus replication in infected cell cultures, plaque assay of supernatant; assay type: cell-based; details: Fibroblast, herpes-infected monkey kidney cells or human fibroblasts, 24 hours, read-out: IC50 (concentration at which virus replication is inhibited by 50%)
# Procedure: The virostatic properties were determined by in vitro tests. The following virus strains were used:
# Cell cultures (monkey kidney cells or human fibroblasts) are infected with herpes and a series of cultures are exposed to medium containing various concentrations of the test substance. After 24 hours the concentration of the virus descendants in the cell culture supernatant is determined by plaque assays.
# [2] = tested on: acidic SMase (microsome fraction from macrophage); experiment: Inhibition of acidic SMase (14C sphingomyelin hydrolysis); assay type: biochemical; details: pH 5.6, untreated = 100%
# Procedure: ^14C sphingomyelin (10 μg/ml) were incubated with neutral SMase (membrane fraction isolated from mouse brains, 10 μg protein/mixture, according to Gatt, S. Biochem. Biophys. Res. Commun. 68, 235-241, 1976) or with acidic SMase (microsome fraction from macrophage 5 μg of protein/mixture isolated according to Gatt, S. Biochem. Biophys. Res. Commun. 68, 235-241, 1976) in the presence of various concentrations of the test substances, for 2 hours at 37° C. in 20 mM Tris, 1 mM MgCl2, pH 7.5 (neutral SMase) or in 50 mM sodium acetate, 1 mM MgCl2, pH 5.6 (acid SMase). Then the samples were extracted with 5 times the volume of chloroform/methanol (1:1) and the content of radioactive phosphorylcholine in the aqueous phase was determined. The release of phosphorylcholine in the untreated mixtures corresponds to 100% enzyme activity.
# ^14C-sphingomyelin (10 μg/ml) was incubated with neutral SMase (membrane fraction from mouse brain, 10 μg of protein/batch, isolated according to Gatt, S. Biochem. Biophys. Res. Commun. 68, 235-241, 1976) or with acid SMase (microsome fraction from macrophages 5 μg of protein per batch [isolated according to S. Gatt, Biochem. Biophys. Res. Commun. 68, 235-241, (1976)] in the presence of various concentrations of the test substances for 2 hours at 37° C. in 20 mM Tris, 1 mM MgCl2, pH 7.5 (neutral SMase) or in 50 mM sodium acetate, 1 mM MgCl2, pH 5.6 (acidic SMase). Then the samples were extracted with 5 times the volume of chloroform/methanol (1:1) and the content of radioactive phosphorylcholine in the aqueous phase was determined. The release of phosphorylcholine in the untreated batches corresponds to 100%.
# [3] = tested on: RAW cells (mouse macrophage line); experiment: Inhibition of NO-synthase induction in macrophages (nitrite in culture medium); assay type: cell-based; details: 10 ng/ml LPS, 16 hours, without C11AG 0.122
# Procedure: RAW cells (mouse macrophage line, origin: American Type Culture Collection) were treated with 10 ng/ml of endotoxin from E. coli (LPS) in the presence of different concentrations of C11AG. After 16 hours the nitrite content in the culture medium was measured using the method described [K. Tschaikowsky, M. Meisner, F. Schonhuber and E. Rugheimer, Br. J. Pharmacol. 113 (3): 664-8 (1994)].
# The inhibition of NO-synthase induction is graphically shown in FIG. 3; the NO2 concentration [OD measured at 540 nm] is plotted against the C11AG concentration [μg/ml] for 10 ng/ml of LPS.
# [4] = target: T1, neutral SMase (membrane fraction isolated from mice brains) (Mus musculus, UniProt Q9JJY3); experiment: Inhibition of neutral SMase (14C sphingomyelin hydrolysis); assay type: biochemical; details: 2 h, pH 7.5, read-out: nSMase activity
# T1 construct: membrane fraction isolated from mice brains, 10 μg of protein/mixture [according to S. Gatt, Biochem. Biophys; Res. Commun; 68, 235-241 (1976)]
# T1 sequence (Q9JJY3 1-655): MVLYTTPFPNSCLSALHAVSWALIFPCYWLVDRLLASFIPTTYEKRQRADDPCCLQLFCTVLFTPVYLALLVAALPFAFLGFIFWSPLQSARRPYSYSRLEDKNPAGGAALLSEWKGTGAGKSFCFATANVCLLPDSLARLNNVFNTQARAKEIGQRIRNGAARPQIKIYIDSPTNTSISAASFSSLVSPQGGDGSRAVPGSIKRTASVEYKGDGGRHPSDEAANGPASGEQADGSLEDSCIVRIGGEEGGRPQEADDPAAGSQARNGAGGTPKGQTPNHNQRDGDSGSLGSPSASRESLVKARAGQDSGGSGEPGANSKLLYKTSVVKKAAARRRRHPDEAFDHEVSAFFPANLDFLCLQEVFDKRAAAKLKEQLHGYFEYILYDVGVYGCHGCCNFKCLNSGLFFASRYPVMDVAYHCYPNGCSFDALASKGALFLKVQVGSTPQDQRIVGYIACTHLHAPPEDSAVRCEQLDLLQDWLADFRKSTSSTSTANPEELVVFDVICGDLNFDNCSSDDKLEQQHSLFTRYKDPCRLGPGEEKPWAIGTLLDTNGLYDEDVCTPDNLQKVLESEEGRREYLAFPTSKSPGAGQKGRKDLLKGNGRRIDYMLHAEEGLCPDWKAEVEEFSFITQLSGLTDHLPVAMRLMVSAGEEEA
# Procedure: Then the samples were extracted with 5 times the volume of chloroform/methanol (1:1) and the content of radioactive phosphorylcholine in the aqueous phase was determined. The release of phosphorylcholine in the untreated mixtures corresponds to 100% enzyme activity.
# The release of phosphorylcholine in the untreated batches corresponds to 100%.
# [5] = tested on: collagen-induced arthritis; experiment: Inhibition of collagen-induced arthritis in the mouse; assay type: in vivo, DBA/I mice; details: for Total Symptoms: day 7 after booster injection, 10 animals
# Procedure: An autoimmune reaction against cartilagenous tissue was produced by injecting collagen into DBA/I mice as described (Holmdahl, R. et al., Immunology, 65, 305-310, 1988). Groups of 10 animals were used as control or were given 50 mg/kg or 100 mg/kg of C11AG per day by oral route. The drug was administered in the food (Altromin, powdered food) and the dosage was calculated from the daily food intake. The symptoms were evaluated daily for each individual paw from 0.5-3 as described [R. Holmdahl, et al., Immunology, 65, 305-310, (1988)].
# 20 days after the booster injection the animals were killed and the joints were examined by histopathology resulting in the following picture: […]
# [6] = tested on: endotoxin from E. coli (endotoxic shock); experiment: Protection from endotoxic shock by C11AG in mice; assay type: in vivo, mice (strain NMRI/Nu); details: 50 mg/kg subcutaneously 30 minutes before 0.2 mg endotoxin i.p.; nine animals; all 10 controls died within 24 hours
# Procedure: Mice (strain NMRI/Nu, 8 weeks old, female) were each given 0.2 mg of endotoxin from E. coli (Sigma, Munich) by intraperitoneal route. The 10 control animals, who had been given 0.2 ml of 5% glucose subcutaneously, died within 24 hours. Nine animals were injected subcutaneously with 50 mg/kg of C11AG 30 minutes before the endotoxin treatment. Of this group, only 2 animals died.
# [7] = tested on: endotoxin from E. coli (lethal endotoxic shock); experiment: Prevention of lethal endotoxic shock in the mouse by H2C11AG; assay type: in vivo, mice of the Balb C strain; details: 100 mg/kg by oesophageal tube 2 hours before 0.7 mg endotoxin i.p., 10 animals, observed 12 days
# Procedure: 10 mice of the Balb C strain (about 8 weeks old) were given 0.7 mg of endotoxin from E. coli (in 0.2 ml of isotonic saline solution) by intraperitoneal injection. 10 animals were given 100 mg/kg of H2C11AG (dissolved in twice distilled water) by oesphageal tube 2 hours before the LPS treatment. The control animals were given water.
smiles,measurement,setting,value
N=C(N)NN=Cc1c2ccccc2cc2ccccc12 [1-(Anthracen-9-ylmethylene-amino)guanidine],IC50,[1],1.5 µM
CCCCCCCCCC=NNC(=N)N [1-(decylidene-amino)guanidine],IC50,[1],28.9 µM
CCCCCCCCCCCC=NNC(=N)N [1-(dodecylideneamino)guanidine],IC50,[1],3.2 µM
"N=C(N)NN=Cc1c[nH]c2ccccc12 [1-(indol-3-ylmethylene-amino)guanidine, 1-(Indol-3-ylmethylene-amino)guanidine]",IC50,[1],19.8 µM
CCCCCCCCC=NNC(=N)N [1-(nonylidene-amino)guanidine],IC50,[1],29 µM
CCCCCCCC=NNC(=N)N [1-(octylidene-amino)guanidine],IC50,[1],49.7 µM
"N=C(N)NN=C1C=Cc2cccc3cccc1c23 [1-(phenalen-1-ylidene-amino)guanidine, 1-(Phenalen-1-ylidene-amino)guanidine]",IC50,[1],45.4 µM
"CCCCCCCCCCC=NNC(=N)N [C11AG, 1-(undecylideneamino)guanidine]",aSMase activity,[2]; 1 μg/ml,101%
same,aSMase activity,[2]; 10 μg/ml,102%
same,aSMase activity,[2]; 100 μg/ml,31%
same,OD 540 nm (nitrite content in culture medium),[3]; 0.5 μg/ml C11AG,0.091
same,OD 540 nm (nitrite content in culture medium),[3]; 1 μg/ml C11AG,0.075
same,OD 540 nm (nitrite content in culture medium),[3]; 2 μg/ml C11AG,0.054
same,OD 540 nm (nitrite content in culture medium),[3]; 3 μg/ml C11AG,0.05
same,OD 540 nm (nitrite content in culture medium),[3]; 4 μg/ml C11AG,0.038
same,activity at 1 µg/mL,[4],61%
same,activity at 10 µg/mL,[4],18%
same,activity at 100 µg/mL,[4],0%
same,Total Symptoms,[5]; 50 mg/kg per day oral in food,4.5
same,Total Symptoms,[5]; 100 mg/kg per day oral in food,1
same,histopathology of joints (inflammatory processes),"[5]; 50 and 100 mg/kg, 20 days after booster injection",no such inflammatory processes could be detected
same,IC50,[1],6.8 µM
same,animals died,[6],2
"CCCCCCCCCCCNNC(=N)N [H2C11AG, 1-(undecylamino) guanidine]",aSMase activity,[2]; 1 μg/ml,100%
same,aSMase activity,[2]; 10 μg/ml,97%
same,aSMase activity,[2]; 100 μg/ml,32%
same,activity at 1 µg/mL,[4],73%
same,activity at 10 µg/mL,[4],22%
same,activity at 100 µg/mL,[4],2%
same,survivors,[7]; control 2 survivors,9
same,survivors (%),[7]; control 20%,90%

# — patent US6444706B2, “Guanidine derivatives, processes for preparing them and their use as pharmaceutical compositions” (priority 1996, dated 2002)
